In paper PMC12313019, “Fibrotic lung ECM upregulates SDC4/integrin-αvβ1 interaction and the interfering peptide SDC4_87-131 and its derivative peptides alleviate pulmonary fibrosis” (Regenerative Biomaterials, 2025):

Legend:
integrin-αvβ1 = integrin-αvβ1 (Homo sapiens, UniProt P05556+P06756); test: SPR binding of peptides to integrin-αvβ1 (Biacore 8K+); conditions: Biacore 8K+, 25°C, integrin-αvβ1 on CM5 chip, PBS + 0.05% Tween-20, peptide 0.78-100 μM, Figure 7E, small labels, best readings
Procedure: The Biacore 8K+ system (GE Healthcare) was used at 25°C. The ligand integrin-αvβ1 (1 mg/mL) was routinely coupled to the sensor chip (Series S Sensor Chip CM5, Cytiva, #100530). The peptide samples SDC4_87-131 and CS-1, -2, -3, -4, -8, -9, -10 were dissolved in PBS, and then, the samples with different concentration gradients (0.78, 1.56, 3.125, 6.25, 12.5, 25, 50, 100 μM) were injected, respectively, under the driving of buffer PBST (PBS + 0.05% Tween-20). The signal intensity was quantified in relative units (RU), and binding affinity was determined using the dissociation constant (Kd). After the experiment, 10 mM glycine-HCl buffer solution (pH = 2) was selected to regenerate the chip surface.

NIH3T3 cells = test: RT-PCR of fibroblast activation markers, TGF-β1 and inflammatory factors in dECM-stimulated fibroblast; type: cell-based, mouse; conditions: for mRNA levels of α-SMA, FN, Col I and TGF-β1: peptide, induced by dECM-Nor and dECM-PF
Procedure: (§1) Decellularized lung ECM (dECM) was prepared as described in previous study. 2 × 10^5 cells/mL NIH3T3 cells (mouse […], purchased from the Stem Cell Bank of the Chinese Academy of Sciences, Shanghai, China) were seeded on the dECM slices attached to the bottom of the culture dish and cultured in DMEM medium containing 0.5% fetal bovine serum (Gibco, Waltham, MA, USA) at 37°C and 5% CO2.
(§2) Total RNA was extracted from cells or lung tissue (10 mg) using Trizol reagent, and mRNA was reverse transcribed into cDNA using HiScript® II QRT SuperMix for qPCR (Vazyme, #R223-01). Real-time fluorescence quantitative PCR (RT-PCR) was performed using Hieff® qPCR SYB Green Master Mix (YEASEN, #11201ES08) to obtain the Ct value. The 2^−ΔΔCt method was used to obtain the relative expression level of mRNA in each group. Primers (Table 1) were purchased from Sangon Biotech.

pan-integrins = test: FN-coating cell adhesion assay (pan-integrins activation); type: cell-based, mouse; conditions: 100 nM, n=4–5
Procedure: 10 μg/mL Fibronectin (Merck, #10838039001) was dissolved in serum-free DMEM medium and dropped into a 96-well plate, 50 μL per well. The plate was incubated at 4 °C overnight. After blocking with 3% bovine serum albumin at room temperature for 30 min, 4×10^4 cells were inoculated into each well. After incubation for 30 min, the cells were washed, fixed, and stained with crystal violet (5 mg/mL) for 30 min. Then after the crystal violet was dissolved, it was detected using an ELISA reader at 595 nm.

[1] = test system: integrin-αvβ1, FAK/AKT and PKCα/NF-κB pathways in NIH3T3 cells; test: Western blot of signaling proteins in dECM-stimulated fibroblast; type: cell-based, mouse; conditions: dECM, n=3; for protein levels of α-SMA, integrin-αv, p-FAK and p-PKCα: designed peptides
Procedure: as §1
20 mg of lung tissue was extracted with RIPA lysis buffer (Roche International Ltd., Bermuda, USA), and the protein concentration was determined using a BCA protein detection kit (Roche). Protein samples were separated by 10% sodium dodecyl sulfate polyacrylamide gel (SDS-PAGE) electrophoresis and transferred to a PVDF membrane. After blocking, the PVDF membrane was incubated with primary antibodies for α-SMA, Integrin-αV, SDC4, Integrin-β1, p-Smad3, FAK, and p-FAK (CST, #19245, #4711, #12236S, #34971, #9520S, #3285S, and #3284S) at 4°C overnight, followed by incubation with secondary antibodies (CST, #7074P2), development with ECL reagent (SAB), and acquisition of images with a chemiluminescence imaging system (ChemiScope 5600).

fibroblast = test: CCK-8 fibroblast viability/toxicity; type: cell-based, mouse; conditions: discussion
Procedure: as §1
(A) Schematic diagram of SDC487-131; (B) Effect of SDC487-131 and GRGDNP on fibroblast proliferation at 48 h was determined by CCK-8 method (n=3); (C) Effect of different concentration of SDC487-131 on fibroblast activation induced by d-PF for 48 h (n=5). Note: **p < 0.01 vs. PBS in d-Nor group; #p < 0.05 vs. PBS in d-PF group. d-Nor: dECM-Nor; d-PF: dECM-PF.
Figure S14. The viability of fibroblast after treated with peptides for 48 h was detected by CCK-8 assay.

[2] = test system: BLM-induced PF, C57BL/6J mice; test: BLM-induced PF in mice: HE, Masson, hydroxyproline; type: in vivo, mouse; conditions: 1 mg/kg tracheal instillation
Procedure: C57BL/6J mice (male, 8-to 9-week old, 18–22 g, SPF grade) were purchased from Shanghai Slake Laboratory Animal Co., Ltd. [SCXK (Hu) 2022-0004, Shanghai, China]. […] The mice were housed in an SPF environment with 22–25°C, 46–65% humidity and 12 h/12 h light-dark alternation, with free access to water and food. This animal experiment was approved by the Experimental Animal Welfare Ethics Committee of Fujian Medical University (No. FJMU IACUC 2021-0465), and was carried out in accordance with the National Research Council's Guide for the Care and Use of Laboratory Animals.
(§3) After the mice were anesthetized (1% sodium pentobarbital 50 mg/kg was injected intraperitoneally), 150 μL of bleomycin (BLM, 5 mg/mL, BIO-000001) was inhaled into the lungs of the mice by tracheal inhalation instillation. One day later, the mice were randomly divided into model and drug treatment groups, and the mice in the control group were only subjected to saline inhalation.
(§4) Based on the dosage of SDC2 fragment peptide and our experimental results (Supplementary Figure S10A and B), the dosage schedule of SDC4_87-131 was set as follows: starting on the third day after BLM inhalation, 1 mg/kg, administered via trachea infusion once every three days. And Anti-SDC4(93-121) 8 mg/kg was administered on the third and tenth days (reference dosage).
Lung tissue samples were paraffin-embedded, then sliced and dewaxed, and HE and Masson staining were performed respectively. After dehydration and sealing, images were collected and analyzed using a microscope.
100 mg of lung tissue was accurately weighed and processed according to the instructions of the hydroxyproline assay kit (Nanjing Jiancheng, Nanjing, China), and the absorbance was measured at a wavelength of 550 nm. The data were expressed as micrograms (µg) of hydroxyproline per mg of dry lung tissue.

[3] = test system: BLM-induced PF, C57BL/6J mice; test: BLM-induced PF in mice: RT-PCR of lung tissue; type: in vivo, mouse; conditions: 1 mg/kg tracheal instillation, q3d, n=4–6
Procedure: as §3, §4, §2

integrin-αvβ1, sequence (P06756 31-992 limits assumed): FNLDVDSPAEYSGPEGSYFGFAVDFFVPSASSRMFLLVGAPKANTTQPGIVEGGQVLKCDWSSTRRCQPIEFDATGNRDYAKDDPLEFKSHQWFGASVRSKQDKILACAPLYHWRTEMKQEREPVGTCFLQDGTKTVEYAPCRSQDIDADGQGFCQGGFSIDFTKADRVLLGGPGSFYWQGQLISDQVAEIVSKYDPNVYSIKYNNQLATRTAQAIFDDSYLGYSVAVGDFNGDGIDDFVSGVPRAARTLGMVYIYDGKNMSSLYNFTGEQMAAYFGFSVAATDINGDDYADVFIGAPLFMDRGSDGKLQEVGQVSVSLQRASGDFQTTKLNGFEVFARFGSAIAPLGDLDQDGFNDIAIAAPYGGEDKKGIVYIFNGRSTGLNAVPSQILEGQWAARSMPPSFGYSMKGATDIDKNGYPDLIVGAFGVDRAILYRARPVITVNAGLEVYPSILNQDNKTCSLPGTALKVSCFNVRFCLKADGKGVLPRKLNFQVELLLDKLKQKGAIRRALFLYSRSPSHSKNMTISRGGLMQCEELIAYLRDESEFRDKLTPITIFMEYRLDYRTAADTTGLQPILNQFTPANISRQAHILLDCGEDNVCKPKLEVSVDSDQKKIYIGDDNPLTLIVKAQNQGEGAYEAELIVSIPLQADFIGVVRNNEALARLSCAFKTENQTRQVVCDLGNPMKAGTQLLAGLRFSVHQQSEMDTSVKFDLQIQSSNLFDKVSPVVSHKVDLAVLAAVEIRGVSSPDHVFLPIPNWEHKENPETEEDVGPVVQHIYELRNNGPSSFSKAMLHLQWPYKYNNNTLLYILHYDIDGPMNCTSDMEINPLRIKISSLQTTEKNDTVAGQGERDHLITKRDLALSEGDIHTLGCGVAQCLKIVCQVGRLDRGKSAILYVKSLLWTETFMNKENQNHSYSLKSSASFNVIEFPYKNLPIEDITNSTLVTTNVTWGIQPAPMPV
integrin-αvβ1, sequence (P05556 21-728 partner limits assumed): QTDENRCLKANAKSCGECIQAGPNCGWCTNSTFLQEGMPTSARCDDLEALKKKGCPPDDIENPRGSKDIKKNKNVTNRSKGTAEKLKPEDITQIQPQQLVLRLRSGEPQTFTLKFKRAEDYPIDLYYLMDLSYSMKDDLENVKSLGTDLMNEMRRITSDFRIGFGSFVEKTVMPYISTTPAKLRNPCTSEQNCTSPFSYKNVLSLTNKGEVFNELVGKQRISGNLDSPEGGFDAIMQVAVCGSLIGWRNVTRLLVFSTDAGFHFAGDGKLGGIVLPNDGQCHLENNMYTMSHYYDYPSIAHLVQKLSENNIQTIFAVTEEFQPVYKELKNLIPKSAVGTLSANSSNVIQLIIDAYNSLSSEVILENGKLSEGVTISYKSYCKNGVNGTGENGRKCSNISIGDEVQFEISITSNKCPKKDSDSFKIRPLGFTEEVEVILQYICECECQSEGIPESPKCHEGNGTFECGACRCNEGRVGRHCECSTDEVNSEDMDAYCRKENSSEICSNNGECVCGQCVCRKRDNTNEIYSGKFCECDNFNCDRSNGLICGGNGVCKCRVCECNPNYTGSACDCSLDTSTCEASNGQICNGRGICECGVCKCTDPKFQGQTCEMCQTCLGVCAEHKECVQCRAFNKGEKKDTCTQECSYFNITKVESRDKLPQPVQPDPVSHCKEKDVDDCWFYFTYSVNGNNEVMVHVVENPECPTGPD

Compound | Kd (integrin-αvβ1) [nM] | effects on FN and Col I mRNA vs SDC4_87-131 (NIH3T3 cells; dECM, n=5) | mRNA levels of α-SMA, FN, Col I and TGF-β1 (NIH3T3 cells; n=5) | inhibition of pan-integrins activation vs SDC4_87-131 (pan-integrins) | protein levels of α-SMA, integrin-αv, p-FAK and p-PKCα [1] | further results
Ac-NHIPERAGSGSQVPTEPKKLSPVEESEDWSNKVSM-NH2 [CS-3] | 64.9 | significantly greater than those of SDC4_87-131 | significantly downregulate | stronger than that of SDC4_87-131 | significantly decrease the protein levels | 
CS(=O)(=O)c1cccc(CNc2nc(Nc3ccc4c(c3)CCC(=O)N4)ncc2C(F)(F)F)c1 [PF-573228, reference compound] |  |  |  |  |  | dECM-PF-induced fibroblast activation and TGF-β1 upregulation (NIH3T3 cells; 1 μM, 3 μM, mRNA levels, n=4): significantly reduced dECM-PF-induced fibroblast activation and TGF-β1 upregulation in a dose-dependent manner
Ac-NHIPERAGSGSQVPTEPKKLSPVEESEDVSNKVSMTTNVT-NH2 [CS-1] | 12.8 |  |  |  |  | 
Ac-NHIPERAGSGSQVPTEPKKLSPVEESEDRSNKVSM-NH2 [CS-2] | 29.1 |  |  |  |  | 

More lines, main results first:

Kd (integrin-αvβ1) [nM] | Compound | effects on FN and Col I mRNA vs SDC4_87-131 (NIH3T3 cells; dECM, n=5) | mRNA levels of α-SMA, FN, Col I and TGF-β1 (NIH3T3 cells; n=5) | inhibition of pan-integrins activation vs SDC4_87-131 (pan-integrins) | protein levels of α-SMA, integrin-αv, p-FAK and p-PKCα [1] | further results
25.9 | Ac-NHIPERAVPTEPKKLSPVEESEDITNSTLV-NH2 [CS-8] | significantly greater than those of SDC4_87-131 | significantly downregulate | stronger than that of SDC4_87-131 | significantly decrease the protein levels | 
32.3 | Ac-NHIPERAVPTEPKKLSPVEESEDITNSTLVTTNVT-NH2 [CS-4] | significantly greater than those of SDC4_87-131 | significantly downregulate | stronger than that of SDC4_87-131 | significantly decrease the protein levels | reduction of integrin-αv and p-FAK vs SDC4_87-131 [1]: weaker reduction in integrin-αv and p-FAK compared to SDC4_87-131
35.4 | Ac-GSADPRAVPTEPKKLSPVEESEDITNSTLV-NH2 [CS-10] | significantly greater than those of SDC4_87-131 | significantly downregulate | stronger than that of SDC4_87-131 | significantly decrease the protein levels | 
10.9 | Ac-NHIPETVEDPEPKKLSPVEESEDITNSTLV-NH2 [CS-9] | significantly greater than those of SDC4_87-131 | significantly downregulate | stronger than that of SDC4_87-131 | significantly decrease the protein levels | toxicity (summary) (fibroblast): low toxicity; downregulation of all four mRNAs (α-SMA, FN, Col I, TGF-β1) vs SDC4_87-131 (NIH3T3 cells; dECM, n=5): significantly higher than that of SDC4_87-131; reduction of α-SMA protein vs SDC4_87-131 [1]: stronger reduction in α-SMA than SDC4_87-131; inhibitory effect on collagen deposition vs SDC4_87-131 ([2]; q3d from day 3): significantly stronger inhibitory effect on collagen deposition than SDC4_87-131; anti-PF effect vs SDC4_87-131 ([2]; overall, q3d): significantly enhanced anti-PF effect compared with SDC4_87-131; effects on α-SMA, FN and IL-6 vs SDC4_87-131 [3]: significantly stronger than that of SDC4_87-131
